Reference: patent publication US11845803B2, “Combination therapies for treatment of BCMA-related cancers and autoimmune disorders” (Fred Hutchinson Cancer Center, priority 2017, dated 2023)
No end group written: not given here.

Legend:
[1] = test system: BCMA-specific T-ChARM T cells co-cultured with K562/BCMA+ cells; test: Effect of exogenous soluble BCMA / BCMA-Fc on BCMA-specific T-ChARM T cell function; assay type: cell-based, human
Procedure: (H) IFN-γ production by BCMA-specific T-ChARM T cells in the presence of exogenous soluble BCMA. sBCMA was added to co-cultures of T cells expressing a BCMA-specific T-ChARM and K562 cells transduced with a polynucleotide encoding full-length BCMA (K562/BCMA^+).
(I) Data from another dose-titration experiment showing the effect of sBCMA on IFN-γ production by BCMA-specific T-ChARM T cells recognizing K562 BCMA^+ cells, which included adding sBCMA to culture at another, higher concentration (5000 ng/mL).
(N) Flow cytometry data showing IFN-γ production (y-axis) and CD4 expression (x-axis) by T cells expressing either a C113ST-ChARM (“C113ST”) of this disclosure or a control anti-CD19 CAR (“[…]”), in co-culture with target-expressing K562 cells and administered the BCMA-Fc fusion protein (left panels: 0 ng/ml BCMA-Fc; right panels: 1000 ng/ml BCMA-Fc.
(O) Dose titration showing IFN-γ release by CAR T cells in response to target cell lines as indicated in the presence or absence of exogenous recombinant BCMA (BCMA-Fc fusion). FMC63 (anti-CD19) vs. K562 CD19^+ (control; downward-facing triangle); C113ST T-ChARM T cells vs. RPMI 8226 (upward-facing triangle), U266 (square), and K562 BCMA^+ cells (circle). Data is representative of 2 independent experiments. Bars represent mean+SEM. P-value=<0.05, as determined by one-way ANOVA with post-test. MFI=mean fluorescence intensity.
(P) IFN-γ production (normalized Mean Fluorescence Intensity, MFI) by the T cells shown in FIG. 2O in co-culture with indicated antigen-expressing cells and in the presence or absence of BCMA-Fc (x-axis).
(Q) Cytolytic activity of CD8^+ C113ST T-ChARM T cells against K562 BCMA^+ target cells and of FMC63 CAR-T cells against K562 CD19^+ target cells at varying concentrations of recombinant BCMA, analyzed by a 4 h CRA at E:T ratio of 10:1. Data is representative of 2 independent experiments. Bars represent mean+SEM. P-value=<0.05, as determined by one way ANOVA with post-test. MFI=mean fluorescence intensity.
The effect of sBCMA was examined as well by adding sBCMA to co-cultures of T cells expressing a BCMA-specific T-ChARM and K562 cells transduced with a polynucleotide encoding full-length BCMA (K562/BCMA^+).

C113ST T-ChARM T cells = test: sBCMA binding to T-ChARM T cells (BCMA-Fc-APC staining after incubation with recombinant BCMA); design: species or system human; conditions: increasing levels of recombinant BCMA
Procedure: (L) sBCMA binding to C113ST-ChARM T cells of this disclosure. T cells were incubated with the indicated levels of recombinant sBCMA (right side of diagram) and then stained with a BCMA-Fc fusion that was conjugated to APC.
To examine whether high levels of sBCMA might inhibit the activity of BCMA-specific T-ChARM T cells, patient bone marrow (BM) sera were examined for sBCMA levels. […] To test whether sBCMA would bind to the T-ChARM T cells, the T cells were incubated with increasing levels of recombinant BCMA and then stained using BCMA-Fc conjugated to APC.

Substance | recognition (IFN-γ production and CD4 expression) by BCMA-targeting T-ChARM T cells ([1]; BCMA-Fc added to co-cultures) | recognition by control anti-CD19 CAR T cells ([1]; BCMA-Fc added, K562 cells expressing CD19) | dose dependence of effect on BCMA T-ChARM T cells ([1]; BCMA-Fc titration) | BCMA-Fc-APC staining of T-ChARM T cells (C113ST T-ChARM T cells) | T-ChARM T cell effector function (IFN-γ release) ([1]; exogenous sBCMA added to co-culture with K562/BCMA+) | IFN-γ production by T-ChARM T cells ([1]; recombinant BCMA not fused to Fc) | lysis of K562 BCMA+ cells by T-ChARM T cells ([1]; recombinant BCMA not fused to Fc, 4 h CRA, E:T 10:1)
BCMA-Fc: recombinant BCMA-Fc fusion protein (MLQMAGQCSQNEYFDSLLHACIPCQLRCSSNTPPLTCQRYCNASVTNSVKGTNA; not fully specified; cysteine pairing not given here; also: fused to dimerising Fc or GST (not given here)) | much-reduced recognition | but not by control anti-CD19 CAR T cells | dose-dependent | – | – | – | –
sBCMA: exogenous soluble / recombinant BCMA not fused to Fc (MLQMAGQCSQNEYFDSLLHACIPCQLRCSSNTPPLTCQRYCNASVTNSVKGTNA) | – | – | – | staining decreased | dose-dependent inhibition | inhibited IFN-γ production in a dose-dependent fashion | did not inhibit lysis
